In brackets after ≈: the same amount, converted by molar mass. Activity calls are given as the source filed them. No cut-off for these calls is given here.
Tests used:
[1] = test system: Mycobacterium tuberculosis; test: Antitubercular activity against Mycobacterium tuberculosis H37Rv assessed as inhibition of bacterial growth by alamar blue assay; assay type: functional
[2] = test system: Mycobacterium tuberculosis; test: Antitubercular activity against Mycobacterium tuberculosis expressing luxCDABE operon assessed as inhibition of bacterial growth under hypoxic conditions by low oxygen recovery assay; assay type: functional
[3] = test system: Mycobacterium tuberculosis; test: Antitubercular activity against Mycobacterium tuberculosis H37Rv assessed as inhibition of bacterial growth at 25 ug/ml by alamar blue assay; assay type: functional, organism-based; conditions: dose 25.0 µg/ml
[4] = test system: Mycobacteroides abscessus; test: Antitubercular activity against Mycobacterium abscessus ATCC 19977 assessed as inhibition of bacterial growth incubated for 4 hrs by resazurin based fluorescence assay; assay type: functional, organism-based
Mycobacterium avium = test: Antitubercular activity against Mycobacterium avium ATCC 15769 assessed as inhibition of bacterial growth incubated for 24 hrs by resazurin based fluorescence assay; assay type: functional, organism-based
[5] = Cytotoxicity against African green monkey Vero cells assessed as inhibition of cell growth incubated for 3 days by resazurin based fluorescence assay; assay type: toxicity; conditions: African green monkey (Chlorocebus sabaeus)
P388 = test: Cytotoxicity against mouse P388 cells; assay type: functional, cell-based
HCT-8 = test: Cytotoxicity against human HCT-8 cells; assay type: functional, cell-based
A549 = test: Cytotoxicity against human A549 cells; assay type: functional, cell-based
MCF7 = test: Cytotoxicity against human MCF7 cells; assay type: functional, cell-based
HeLa = test: Cytotoxicity against human HeLa cells; assay type: functional, cell-based

| SMILES | MIC [1] [µM] | MIC [2] [µM] | Activity [3] | further results |
| --- | --- | --- | --- | --- |
| CC(=O)NC[C@H]1CN(c2ccc(N3CCOCC3)c(F)c2)C(=O)O1 [LINEZOLID] | 1 (≈ 0.337 µg/mL) | 1.7 (≈ 0.573 µg/mL) | – | – |
| CO[C@H]1/C=C/O[C@@]2(C)Oc3c(C)c(O)c4c(O)c(c(/C=N/N5CCN(C)CC5)c(O)c4c3C2=O)NC(=O)/C(C)=C\C=C\[C@H](C)[C@H](O)[C@@H](C)[C@@H](O)[C@@H](C)[C@H](OC(C)=O)[C@@H]1C [RIFAMPIN] | 0.04 (≈ 0.0329 µg/mL) | 0.09 (≈ 0.0741 µg/mL) | – | – |
| COc1ccc2c(c1)C[C@H]1[C@]3(C)CC[C@@H]4[C@]5(CCC[C@@]4(C)C(=O)OC5)[C@H]3CC[C@]1(C)O2 | – | – | inactive | – |
| O=[N+]([O-])c1cn2c(n1)OC[C@@H](OCc1ccc(OC(F)(F)F)cc1)C2 [PRETOMANID] | 0.2 (≈ 0.0719 µg/mL) | 2 (≈ 0.719 µg/mL) | – | – |
| COc1ccc2c(c1)C[C@H]1[C@]3(C)CC[C@@H]4[C@](C)(CCC[C@]4(C)C(=O)O)[C@H]3CC[C@]1(C)O2 | – | – | inactive | – |
| COc1ccc2c(c1)C[C@H]1[C@]3(C)CC[C@H]4[C@@]5(C)CCC[C@]4(CO[C@H]5O)[C@H]3CC[C@]1(C)O2 | – | – | inactive | – |
| COc1ccc2c(c1)C[C@H]1[C@]3(C)CC[C@H]4[C@@]5(C)CCC[C@]4(CO[C@@H]5O)[C@H]3CC[C@]1(C)O2 | – | – | inactive | – |
| C[C@]12CCC[C@](C)(C=O)[C@@H]1CC[C@]1(C)[C@@H]2CC[C@]2(C)Oc3ccc(O)cc3C[C@@H]12 | – | – | inactive | – |
| C#CC(O)/C=C/CCCCCCCCC/C=C\CCCCCCCCC/C=C/C(O)C#C (configuration not stated) | 1.4 (≈ 0.617 µg/mL) | 1 (≈ 0.441 µg/mL) | – | Activity [4]: inactive; Activity (Mycobacterium avium): inactive; IC50 at 3 days [5]: 0.4 µM; IC50 (P388): 0.2 µM; IC50 (HCT-8): 0.2 µM; IC50 (A549): 0.2 µM; IC50 (MCF7): 0.2 µM; IC50 (HeLa): 0.2 µM |
| COc1nc2ccc(Br)cc2cc1[C@@H](c1ccccc1)[C@@](O)(CCN(C)C)c1cccc2ccccc12 [BEDAQUILINE] | 0.03 (≈ 0.0167 µg/mL) | 0.1 (≈ 0.0556 µg/mL) | – | – |
| NNC(=O)c1ccncc1 [ISONIAZID] | 0.2 (≈ 0.0274 µg/mL) | > 128 | – | – |
| CCO[C@@H]1OC[C@]23CCC[C@]1(C)[C@@H]2CC[C@]1(C)[C@@H]3CC[C@]2(C)Oc3ccc(OC)cc3C[C@@H]12 | – | – | inactive | – |
| C[C@]12CCC[C@](C)(C(=O)O)[C@@H]1CC[C@]1(C)[C@@H]2CC[C@]2(C)Oc3ccc(O)cc3C[C@@H]12 | – | – | inactive | – |
